Values quoted from earlier work in patent US20140148399A1, “Compositions and methods for treating or ameliorating obesity or for reducing diabetic hypercholesterolemia” (UNIVERSITY OF TSUKUBA, priority 2012, published 2014).

Tested on: 3T3-L1 cells

Compound: COc1cc(-c2oc3cc(O)cc(O)c3c(=O)c2O)ccc1O [Isorhamnetin]
- adiponectin expression and secretion: reduces
- C/EBP-α and PPAR-γ mRNA levels (3T3-L1 adipocyte differentiation): reducing
- adipogenesis in 3T3-L1 cells (by inhibiting 3T3-L1 adipocyte differentiation): represses adipogenesis
